Laboratory results: patent US20070158208A1, “Apparatus and methods for treating ballast water by using electrolysis of natural seawater” (Research Institute of Industrial Science & Technology, priority 2003, published 2007)

Columns and labels:
Acartia spp.(Copepoda) = experiment: Influence density of NaOCl in electrolyzed water on marine ecosystem; type: in vivo
Description: (§1) In the meantime, according to the present invention, marine microorganisms are effectively killed. Influence density for most of organisms in the seawater by electrolyzed water is shown on Table 1 below. As a result of performing the present invention, it has been checked by a natural eye that organisms causing red tide is completely eliminated within 1-2 minutes after spreading of the electrolyzed water. A density of Cochlodinium which has been a population of 7-8 thousand/ml in an actual relevant sea area has approached almost zero after four hours elapse, showing high relief efficiency. If the NaOCl component density required by the electrolyzed water is controlled, complete elimination of marine microorganisms is achieved.

[1] = tested on: Adult benthic fauna: Tapes philippinarum, Giant pacific oyster, Pachygrapsus crassipes; experiment: as above; type: in vivo
Description: as §1

[2] = tested on: Adult seaweeds: Borphyra seriata, Ulva pertusa; experiment: as above; type: in vivo
Description: as §1

[3] = tested on: Artemia larva(Kugenumaenis); experiment: as above; type: in vivo; conditions: Benthic fauna larva
Description: as §1

Barnacle larva = experiment: as above; type: in vivo; conditions: Benthic fauna larva
Description: as §1

[4] = tested on: Fish: Bastard halibut fry, sebastes schlegeli fry; experiment: as above; type: in vivo
Description: as §1

Oxyrrhis marina = experiment: as above; type: in vivo; conditions: Protista
Description: as §1

Polykrikos kofodidii = experiment: as above; type: in vivo; conditions: Protista
Description: as §1

[5] = tested on: Pseudodiaptomus spp.(Copepoda); experiment: as above; type: in vivo; conditions: Zooplankton
Description: as §1

[6] = tested on: Seaweeds spore: Borphyra seriata, Ulva pertusa, Brown seaweed; experiment: as above; type: in vivo
Description: as §1

Strombidinopsis sp = experiment: as above; type: in vivo; conditions: Protista
Description: as §1

[7] = NaOCl obtained during the electrolysis compared with HCl; cited from earlier work

In the case of `[Na+].[O-]Cl` [NaOCl], the Influence density (Acartia spp.(Copepoda)) is reported as 2.0 ppm, the Influence density [1] is reported as 20 or more ppm and the Influence density [2] is reported as 1.0-1.5 ppm. The Influence density [3] was 30-50 ppm, the Influence density (Barnacle larva) was 50 ppm and the Influence density [4] was 2-5 ppm. The Influence density (Oxyrrhis marina) was 0.3 ppm, the Influence density (Polykrikos kofodidii) was 0.75-1.0 ppm and the Influence density [5] was 10-20 ppm. The Influence density [6] was 0.1-0.3 ppm, the Influence density (Strombidinopsis sp) was 0.75-1.0 ppm and the “Insecticide and sterilizing effects relative to HCl” value [7] was “about 1.4 times”.
